Assay results as given in patent US12226424B2, “Target protein degradation compounds, their anti-tumor use, their intermediates and use of intermediates” (ShanghaiTech University, priority 2018, dated 2025).

Tests used:
SR cells = assay: Half inhibitory concentration (IC50) on ALK-positive SR cell proliferation (CCK-8); format: cell-based; details: Homo sapiens; SR cells, 72 h drug treatment, CCK-8; read-out: IC50 (nM)/ SR cell line
Experimental: (§1) ALK-positive SR cells (human large cell immunoblastic lymphoma) were purchased from the American Type Culture Collection (ATCC); H3122 cells (human non-small cell lung cancer) were from the Shanghai University of Science and Technology Lin Haifan's research group.
(§2) The cells used in this present disclosure were cultured in a 37° C. incubator containing 5% CO2.
SR cells were seeded in 100 μL RPMI1640 complete medium at a density of 10,000 cells/well. 100 μL of the inoculated cells were treated with 0.5 μL diluted PROTAD compound of the present disclosure to be tested at 10 successively decreasing concentrations (starting at the highest concentration of 10 μM; 5-fold serial dilutions) After the cells were treated with the drug for 72 h, cell viability was determined according to the CCK-8 reagent operating instructions. The negative control was DMSO, and the positive control was a commercial inhibitor. After CCK-8 treatment for 2 h, the value of O.D.450 was measured using a microplate reader.

ALK protein = ALK protein (Homo sapiens, UniProt Q9UM73); assay: Western-blot half degradation concentration (DC50) of ALK protein in H3122 cells; format: cell-based; details: 24 h drug treatment, read-out: DC50 (nM)/ H3122 cell line
Experimental: as §1, §2
DC50 (drug concentration corresponding to protein degradation to 50%) calculation: according to the gray value of the corresponding Western blotting band after drug treatment, fitting the relationship curve between drug concentration and gray value to calculate the drug concentration range corresponding to half of the gray value.

Chain of ALK protein (Q9UM73 with tags, fused parts or gaps): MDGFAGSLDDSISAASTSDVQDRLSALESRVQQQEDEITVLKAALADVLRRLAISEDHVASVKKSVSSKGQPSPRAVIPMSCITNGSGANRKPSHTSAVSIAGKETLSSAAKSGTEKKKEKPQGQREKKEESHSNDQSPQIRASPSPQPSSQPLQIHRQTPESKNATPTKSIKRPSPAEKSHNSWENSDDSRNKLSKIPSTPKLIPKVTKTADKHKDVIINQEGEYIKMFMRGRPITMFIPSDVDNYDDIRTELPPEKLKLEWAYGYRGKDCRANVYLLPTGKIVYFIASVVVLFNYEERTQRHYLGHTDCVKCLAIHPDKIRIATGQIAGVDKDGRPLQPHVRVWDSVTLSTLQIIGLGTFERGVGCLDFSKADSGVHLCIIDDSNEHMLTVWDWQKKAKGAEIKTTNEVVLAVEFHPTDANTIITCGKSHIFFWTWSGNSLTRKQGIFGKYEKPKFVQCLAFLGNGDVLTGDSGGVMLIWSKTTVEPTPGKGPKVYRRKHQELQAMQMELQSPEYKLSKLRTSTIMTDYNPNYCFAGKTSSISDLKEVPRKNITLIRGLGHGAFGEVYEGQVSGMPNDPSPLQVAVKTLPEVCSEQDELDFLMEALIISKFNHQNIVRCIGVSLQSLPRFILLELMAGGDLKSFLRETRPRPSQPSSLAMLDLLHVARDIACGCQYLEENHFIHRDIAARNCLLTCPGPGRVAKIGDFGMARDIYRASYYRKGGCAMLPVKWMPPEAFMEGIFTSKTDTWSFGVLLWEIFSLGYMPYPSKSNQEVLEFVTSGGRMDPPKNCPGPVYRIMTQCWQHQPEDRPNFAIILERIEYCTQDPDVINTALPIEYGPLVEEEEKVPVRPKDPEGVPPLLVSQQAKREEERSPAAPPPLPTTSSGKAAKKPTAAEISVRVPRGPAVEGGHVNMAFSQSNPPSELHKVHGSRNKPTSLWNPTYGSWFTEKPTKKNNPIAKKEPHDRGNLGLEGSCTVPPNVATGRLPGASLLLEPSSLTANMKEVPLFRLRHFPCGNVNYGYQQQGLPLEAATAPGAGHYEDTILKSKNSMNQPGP

| DC50 (ALK protein) | SMILES | IC50 (SR cells) |
| --- | --- | --- |
| 500 nM | COc1cc(N2CCC(NC(=O)CCCCSc3cccc4c3C(=O)N(C3CCC(=O)NC3=O)C4=O)CC2)ccc1Nc1ncc(Cl)c(Nc2ccccc2P(C)(C)=O)n1 (centres unmarked) [SIAIS164140, N-(1-(4-((5-chloro-4-((2-(dimethylphosphoryl)phenyl)amino)pyrimidin-2-yl)amino)-3-methoxyphenyl)piperidin-4-yl)-5-((2-(2,6-dioxopiperidin-3-yl)-1,3-dioxoisoindolin-4-yl)thio)pentanamide] | 8.7 ± 4.9 nM |
| 100 to 500 nM | CCc1cc2c(cc1N1CCN(C(=O)CCSc3cccc4c3C(=O)N(C3CCC(=O)NC3=O)C4=O)CC1)C(C)(C)c1[nH]c3cc(C#N)ccc3c1C2=O (centres unmarked) [SIAIS164069, 8-(4-(3-((2-(2,6-dioxopiperidin-3-yl)-1,3-dioxoisoindolin-4-yl)thio)propanoyl)piperazin-1-yl)-9-ethyl-6,6-dimethyl-11-oxo-6,11-dihydro-5H-benzo[b]carbazole-3-carbonitrile] | – |
| 500 nM | COc1cc(N2CCN(C(=O)CCCCSc3cccc4c3C(=O)N(C3CCC(=O)NC3=O)C4=O)CC2)ccc1Nc1ncc(Cl)c(Nc2ccccc2P(C)(C)=O)n1 (centres unmarked) [SIAIS1197119, 4-((5-(4-(4-((5-chloro-4-((2-(dimethylphosphoryl)phenyl)amino)pyrimidin-2-yl)amino)-3-methoxyphenyl)piperazin-1-yl)-5-oxopentyl)thio)-2-(2,6-dioxopiperidin-3-yl)isoindoline-1,3-dione] | 13.2 ± 2.6 nM |
| 100 nM | COc1cc(N2CCN(C(=O)CSc3cccc4c3C(=O)N(C3CCC(=O)NC3=O)C4=O)CC2)ccc1Nc1ncc(Cl)c(Nc2ccccc2P(C)(C)=O)n1 (centres unmarked) [SIAIS1197113, 4-((2-(4-(4-((5-chloro-4-((2-(dimethylphosphoryl)phenyl)amino)pyrimidin-2-yl)amino)-3-methoxyphenyl)piperazin-1-yl)-2-oxoethyl)thio)-2-(2,6-dioxopiperidin-3-yl)isoindoline-1,3-dione] | 23.6 ± 19.4 nM |
| 50 nM | COc1cc(N2CCC(NC(=O)CCCCCCSc3cccc4c3C(=O)N(C3CCC(=O)NC3=O)C4=O)CC2)ccc1Nc1ncc(Cl)c(Nc2ccccc2P(C)(C)=O)n1 (centres unmarked) [SIAIS164142, N-(1-(4-((5-chloro-4-((2-(dimethylphosphoryl)phenyl)amino)pyrimidin-2-yl)amino)-3-methoxyphenyl)piperidin-4-yl)-7-((2-(2,6-dioxopiperidin-3-yl)-1,3-dioxoisoindolin-4-yl)thio)heptanamide] | 6.4 ± 4 nM |
| 500 nM | COc1cc(N2CCN(C(=O)CCCSc3cccc4c3C(=O)N(C3CCC(=O)NC3=O)C4=O)CC2)ccc1Nc1ncc(Cl)c(Nc2ccccc2P(C)(C)=O)n1 (centres unmarked) [SIAIS1197117, 4-((4-(4-(4-((5-chloro-4-((2-(dimethylphosphoryl)phenyl)amino)pyrimidin-2-yl)amino)-3-methoxyphenyl)piperazin-1-yl)-4-oxobutyl)thio)-2-(2,6-dioxopiperidin-3-yl)isoindoline-1,3-dione] | 16.9 ± 12 nM |
| 100 to 500 nM | CCc1cc2c(cc1N1CCN(C(=O)CCCCCCSc3cccc4c3C(=O)N(C3CCC(=O)NC3=O)C4=O)CC1)C(C)(C)c1[nH]c3cc(C#N)ccc3c1C2=O (centres unmarked) [SIAIS164073, 8-(4-(7-((2-(2,6-dioxopiperidin-3-yl)-1,3-dioxoisoindolin-4-yl)thio)heptanoyl)piperazin-1-yl)-9-ethyl-6,6-dimethyl-11-oxo-6,11-dihydro-5H-benzo[b]carbazole-3-carbonitrile] | – |
| 204 nM | CCc1cc2c(cc1N1CCN(C(=O)CCCCCSc3cccc4c3C(=O)N(C3CCC(=O)NC3=O)C4=O)CC1)C(C)(C)c1[nH]c3cc(C#N)ccc3c1C2=O (centres unmarked) [SIAIS164071, 8-(4-(6-((2-(2,6-dioxopiperidin-3-yl)-1,3-dioxoisoindolin-4-yl)thio)hexanoyl)piperazin-1-yl)-9-ethyl-6,6-dimethyl-11-oxo-6,11-dihydro-5H-benzo[b]carbazole-3-carbonitrile] | – |
| 104 nM | CCc1cc2c(cc1N1CCN(C(=O)CSc3cccc4c3C(=O)N(C3CCC(=O)NC3=O)C4=O)CC1)C(C)(C)c1[nH]c3cc(C#N)ccc3c1C2=O (centres unmarked) [SIAIS164068, 8-(4-(2-((2-(2,6-dioxopiperidin-3-yl)-1,3-dioxoisoindolin-4-yl)thio)acetyl)piperazin-1-yl)-9-ethyl-6,6-dimethyl-11-oxo-6,11-dihydro-5H-benzo[b]carbazole-3-carbonitrile] | – |
| 63 nM | CCc1cc2c(cc1N1CCN(C(=O)CCCCSc3cccc4c3C(=O)N(C3CCC(=O)NC3=O)C4=O)CC1)C(C)(C)c1[nH]c3cc(C#N)ccc3c1C2=O (centres unmarked) [SIAIS164072, 8-(4-(5-((2-(2,6-dioxopiperidin-3-yl)-1,3-dioxoisoindolin-4-yl)thio)pentanoyl)piperazin-1-yl)-9-ethyl-6,6-dimethyl-11-oxo-6,11-dihydro-5H-benzo[b]carbazole-3-carbonitrile] | – |
| 100 nM | COc1cc(N2CCC(NC(=O)CCSc3cccc4c3C(=O)N(C3CCC(=O)NC3=O)C4=O)CC2)ccc1Nc1ncc(Cl)c(Nc2ccccc2P(C)(C)=O)n1 (centres unmarked) [SIAIS164138, N-(1-(4-((5-chloro-4-((2-(dimethylphosphoryl)phenyl)amino)pyrimidin-2-yl)amino)-3-methoxyphenyl)piperidin-4-yl)-3-((2-(2,6-dioxopiperidin-3-yl)-1,3-dioxoisoindolin-4-yl)thio)propanamide] | 24.1 ± 17.5 nM |
| 500 nM | COc1cc(N2CCC(NC(=O)CCCSc3cccc4c3C(=O)N(C3CCC(=O)NC3=O)C4=O)CC2)ccc1Nc1ncc(Cl)c(Nc2ccccc2P(C)(C)=O)n1 (centres unmarked) [SIAIS164139, N-(1-(4-((5-chloro-4-((2-(dimethylphosphoryl)phenyl)amino)pyrimidin-2-yl)amino)-3-methoxyphenyl)piperidin-4-yl)-4-((2-(2,6-dioxopiperidin-3-yl)-1,3-dioxoisoindolin-4-yl)thio)butanamide] | 11.6 ± 6 nM |
| 500 nM | COc1cc(N2CCN(C(=O)CCSc3cccc4c3C(=O)N(C3CCC(=O)NC3=O)C4=O)CC2)ccc1Nc1ncc(Cl)c(Nc2ccccc2P(C)(C)=O)n1 (centres unmarked) [SIAIS1197115, 4-((3-(4-(4-((5-chloro-4-((2-(dimethylphosphoryl)phenyl)amino)pyrimidin-2-yl)amino)-3-methoxyphenyl)piperazin-1-yl)-3-oxopropyl)thio)-2-(2,6-dioxopiperidin-3-yl)isoindoline-1,3-dione] | 42 ± 29.3 nM |
| 500 nM | COc1cc(N2CCN(C(=O)CCCCCCSc3cccc4c3C(=O)N(C3CCC(=O)NC3=O)C4=O)CC2)ccc1Nc1ncc(Cl)c(Nc2ccccc2P(C)(C)=O)n1 (centres unmarked) [SIAIS1197159, 4-((7-(4-(4-((5-chloro-4-((2-(dimethylphosphoryl)phenyl)amino)pyrimidin-2-yl)amino)-3-methoxyphenyl)piperazin-1-yl)-7-oxoheptyl)thio)-2-(2,6-dioxopiperidin-3-yl)isoindoline-1,3-dione] | 10 ± 5.7 nM |
| 100 to 500 nM | CCc1cc2c(cc1N1CCN(C(=O)CCCSc3cccc4c3C(=O)N(C3CCC(=O)NC3=O)C4=O)CC1)C(C)(C)c1[nH]c3cc(C#N)ccc3c1C2=O (centres unmarked) [SIAIS164070, 8-(4-(4-((2-(2,6-dioxopiperidin-3-yl)-1,3-dioxoisoindolin-4-yl)thio)butanoyl)piperazin-1-yl)-9-ethyl-6,6-dimethyl-11-oxo-6,11-dihydro-5H-benzo[b]carbazole-3-carbonitrile] | – |
| 500 nM | COc1cc(N2CCC(NC(=O)CSc3cccc4c3C(=O)N(C3CCC(=O)NC3=O)C4=O)CC2)ccc1Nc1ncc(Cl)c(Nc2ccccc2P(C)(C)=O)n1 (centres unmarked) [SIAIS164137, N-(1-(4-((5-chloro-4-((2-(dimethylphosphoryl)phenyl)amino)pyrimidin-2-yl)amino)-3-methoxyphenyl)piperidin-4-yl)-2-((2-(2,6-dioxopiperidin-3-yl)-1,3-dioxoisoindolin-4-yl)thio)acetamide] | 16.8 ± 5.7 nM |
